“Also recorded” adds a separate entry of the source.
Key:
[1] = tested on: agonist stimulated platelets; experiment: Platelet procoagulant potential, Calibrated Automated Thrombogram; format: cell-based, human; settings: 100 mg aspirin daily for 7 days; thrombin and collagen
Procedure: FIG. 5. […] A. Washed human platelets were untreated or stimulated with thrombin (0.1 units/mL) and collagen (5 μg/mL) or the mitochondrial membrane disrupter CCCP (4 μM). Mitochondrial transmembrane potential was measured using the cationic dye, JC-1. The ratio of distribution of JC-1 between the mitochondria (red fluorescence) and cytosol (green fluorescence) reflects mitochondrial transmembrane potential. […] B-C. […] E. Washed human platelets were preincubated with CaCl2 for 15 min and then untreated or stimulated with thrombin (0.1 units/mL) and collagen (5 μg/mL).
FIG. 8. […] Platelets from healthy volunteers were examined before and after 7 days of aspirin ingestion. Washed platelets were activated with thrombin (0.1 units/mL) and collagen (5 μg/mL) and GSAO+/P-selectin+ necrotic platelets measured by flow cytometry (part A) and procoagulant potential assessed using the Calibrated Automated Thrombogram (part B).
Thrombin generation capacity of agonist stimulated platelets was measured using the Calibrated Automated Thrombogram as described (Hemker et al., 2003) using the Fluorskan Ascent (Thermo Scientific). Agonist stimulated platelets were washed in phosphate-buffered saline and resuspended into the donor's own platelet poor plasma at 5×10^4/μL and recombinant tissue factor ([…], Innovin, Dade Behring) was added. Assays were performed in triplicate.

[2] = tested on: washed platelets from healthy volunteers; experiment: Aspirin study: GSAO+/P-selectin+ necrotic platelets ex vivo (flow cytometry); format: cell-based, human; settings: 100 mg aspirin daily for 7 days; thrombin and collagen
Procedure: FIG. 8. Aspirin ingestion sensitizes platelets to cyclophilin D inhibition in human subjects. Platelets from healthy volunteers were examined before and after 7 days of aspirin ingestion. Washed platelets were activated with thrombin (0.1 units/mL) and collagen (5 μg/mL) and GSAO+/P-selectin+ necrotic platelets measured by flow cytometry (part A) and procoagulant potential assessed using the Calibrated Automated Thrombogram (part B).
The standard pharmacological means for prevention of cardiovascular events is by inhibiting platelet cyclooxygenase-1 with aspirin, which suppresses platelet activation.
This study was approved by the University of New South Wales Human Research Ethics Advisory Committee (HC132219), conducted according to the Declaration of Helsinki and all volunteers gave written informed consent. Five healthy volunteers aged 25-45 years were recruited. Prior to starting the study, all volunteers abstained from aspirin or non-steroidal anti-inflammatory drugs (NSAIDS), or other anti-platelet therapies for 14 days. Volunteers received 100 mg enteric coated aspirin daily for 7 days. Blood was collected and washed platelets assessed at baseline, day 0, and again at day 7 of treatment.

[3] = tested on: platelets of coronary artery disease patients; experiment: Whole blood platelet necrosis assay in coronary artery disease patients; format: in vivo, human; settings: thrombin or thrombin/collagen stimulation
Source text: The whole blood platelet necrosis assay was validated by measuring formation of procoagulant platelets in response to well-known agonist in humans and mice. The assay was able to reproducibly measure platelet propensity to necrosis in healthy human volunteers as well as in patients with ischaemic heart disease within a clinical setting.
Experiments using genetically modified mice indicate that formation of procoagulant platelets is dependent on the cyclophilin D necrosis pathway, but independent of the BclXL apoptosis pathway. In healthy volunteers, the strong platelet agonists, thrombin and collagen, induce formation of procoagulant platelets via a mechanism that is largely independent of protease activated receptors. Patients with coronary artery disease have a heightened procoagulant platelet potential and are sensitised to thrombin and ADP stimulation. The procoagulant platelet potential in these patients is insensitive to aspirin, which targets platelet aggregation, but modified by P2Y12 antagonists.
To examine the effect of CAD on procoagulant platelet potential, non-heparinized bloods from patients with exposure to either aspirin only or no antiplatelet medications within 7 days of the procedure were assayed. […] There were no statistically significant differences between the groups in the absence of agonist stimulation.

Question: What does the source list for `CC(=O)Oc1ccccc1C(=O)O` [aspirin]?
Answer: change in procoagulant potential of activated platelets [1]: no change; change in GSAO+/P-selectin+ necrotic potential of activated platelets [2]: no change; effect on necrotic / procoagulant platelet potential in patients [3]: did not affect; also recorded: insensitive

— patent US10828275B2, “Selective targeting of procoagulant platelets” (NewSouth Innovations Pty Limited, priority 2014, dated 2020)
